Measurements from publication PMC8429728, “TNK1 is a ubiquitin-binding and 14-3-3-regulated kinase that can be targeted to block tumor growth” (Nature Communications, 2021).
One block for each compound: values may come before it.

How the values were obtained:
Assay in all cases: biochemical
Design in all cases: Reaction Biology kinase panel, control compounds in 10-dose IC50 mode at Km ATP
TGFBR2 = TGFBR2 (Homo sapiens, UniProt P37173)
ARAF = molecular target: T1, ARAF (Homo sapiens, UniProt P10398)
T1 sequence (P10398 1-606): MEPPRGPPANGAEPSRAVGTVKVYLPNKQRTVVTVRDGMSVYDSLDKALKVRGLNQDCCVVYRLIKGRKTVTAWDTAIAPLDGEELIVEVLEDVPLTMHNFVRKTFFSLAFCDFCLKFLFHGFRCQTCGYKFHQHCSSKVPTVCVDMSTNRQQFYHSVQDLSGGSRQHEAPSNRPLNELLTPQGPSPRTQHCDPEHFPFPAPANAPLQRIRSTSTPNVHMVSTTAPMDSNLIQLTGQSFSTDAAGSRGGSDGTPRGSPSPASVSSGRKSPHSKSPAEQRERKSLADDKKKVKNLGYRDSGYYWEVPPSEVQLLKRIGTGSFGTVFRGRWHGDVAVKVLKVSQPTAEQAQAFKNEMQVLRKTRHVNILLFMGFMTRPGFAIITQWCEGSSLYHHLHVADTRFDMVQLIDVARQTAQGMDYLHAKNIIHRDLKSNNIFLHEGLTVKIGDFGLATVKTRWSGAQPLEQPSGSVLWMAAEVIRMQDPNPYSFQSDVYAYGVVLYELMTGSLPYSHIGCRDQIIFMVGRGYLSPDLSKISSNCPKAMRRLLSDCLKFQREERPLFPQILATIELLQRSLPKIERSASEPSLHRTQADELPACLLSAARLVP

CK2a = molecular target: T2, CK2a (Homo sapiens, UniProt P68400)
T2 construct: gene CSNK2A1
T2 sequence (P68400 whole entry): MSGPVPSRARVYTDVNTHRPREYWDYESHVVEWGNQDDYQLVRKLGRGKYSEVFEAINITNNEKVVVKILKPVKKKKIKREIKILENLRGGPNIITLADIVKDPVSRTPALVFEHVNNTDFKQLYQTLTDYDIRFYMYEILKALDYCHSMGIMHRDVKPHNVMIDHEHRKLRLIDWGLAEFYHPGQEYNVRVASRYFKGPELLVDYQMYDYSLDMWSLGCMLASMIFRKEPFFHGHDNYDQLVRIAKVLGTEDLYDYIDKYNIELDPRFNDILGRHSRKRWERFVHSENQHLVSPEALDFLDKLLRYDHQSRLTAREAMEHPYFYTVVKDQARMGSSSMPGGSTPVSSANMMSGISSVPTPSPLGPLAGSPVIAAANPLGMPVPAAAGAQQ

DYRK4 = molecular target: T3, DYRK4 (Homo sapiens, UniProt Q9NR20)
T3 sequence (Q9NR20 1-520): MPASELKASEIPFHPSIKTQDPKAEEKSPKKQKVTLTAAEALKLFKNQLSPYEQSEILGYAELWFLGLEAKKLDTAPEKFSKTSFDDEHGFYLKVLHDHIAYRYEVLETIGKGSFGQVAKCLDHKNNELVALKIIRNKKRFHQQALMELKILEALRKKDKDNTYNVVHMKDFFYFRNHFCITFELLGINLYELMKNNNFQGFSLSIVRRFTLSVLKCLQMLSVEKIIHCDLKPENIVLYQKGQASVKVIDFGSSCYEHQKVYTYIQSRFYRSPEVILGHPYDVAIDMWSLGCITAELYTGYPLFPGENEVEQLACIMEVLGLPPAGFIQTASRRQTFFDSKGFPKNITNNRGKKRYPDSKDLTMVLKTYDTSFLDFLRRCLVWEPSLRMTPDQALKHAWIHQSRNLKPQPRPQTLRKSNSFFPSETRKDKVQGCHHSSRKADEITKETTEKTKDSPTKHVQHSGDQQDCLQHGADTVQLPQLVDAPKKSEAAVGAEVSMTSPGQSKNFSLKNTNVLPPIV

ZAK/MLTK = molecular target: T4, ZAK/MLTK (Homo sapiens, UniProt Q9NYL2)
T4 construct: gene MAP3K20

COT1/MAP3K8 = COT1/MAP3K8 (Homo sapiens, UniProt P41279)
Chain of COT1/MAP3K8 (P41279 whole entry): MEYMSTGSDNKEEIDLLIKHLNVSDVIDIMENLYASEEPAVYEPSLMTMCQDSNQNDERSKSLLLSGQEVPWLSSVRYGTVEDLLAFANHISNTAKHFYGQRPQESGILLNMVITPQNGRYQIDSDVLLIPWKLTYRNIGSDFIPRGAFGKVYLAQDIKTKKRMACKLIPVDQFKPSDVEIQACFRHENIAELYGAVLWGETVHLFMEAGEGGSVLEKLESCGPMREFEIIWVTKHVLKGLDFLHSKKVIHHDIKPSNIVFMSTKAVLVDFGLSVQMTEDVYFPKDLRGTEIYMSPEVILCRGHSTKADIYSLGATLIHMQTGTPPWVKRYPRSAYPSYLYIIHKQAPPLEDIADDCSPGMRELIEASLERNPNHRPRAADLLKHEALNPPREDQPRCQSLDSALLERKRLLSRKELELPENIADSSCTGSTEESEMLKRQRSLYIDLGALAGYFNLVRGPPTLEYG

HIPK1 = HIPK1 (Homo sapiens, UniProt Q86Z02)
HPK1/MAP4K1 = HPK1/MAP4K1 (Homo sapiens, UniProt Q92918)
Chain of HPK1/MAP4K1 (Q92918 whole entry): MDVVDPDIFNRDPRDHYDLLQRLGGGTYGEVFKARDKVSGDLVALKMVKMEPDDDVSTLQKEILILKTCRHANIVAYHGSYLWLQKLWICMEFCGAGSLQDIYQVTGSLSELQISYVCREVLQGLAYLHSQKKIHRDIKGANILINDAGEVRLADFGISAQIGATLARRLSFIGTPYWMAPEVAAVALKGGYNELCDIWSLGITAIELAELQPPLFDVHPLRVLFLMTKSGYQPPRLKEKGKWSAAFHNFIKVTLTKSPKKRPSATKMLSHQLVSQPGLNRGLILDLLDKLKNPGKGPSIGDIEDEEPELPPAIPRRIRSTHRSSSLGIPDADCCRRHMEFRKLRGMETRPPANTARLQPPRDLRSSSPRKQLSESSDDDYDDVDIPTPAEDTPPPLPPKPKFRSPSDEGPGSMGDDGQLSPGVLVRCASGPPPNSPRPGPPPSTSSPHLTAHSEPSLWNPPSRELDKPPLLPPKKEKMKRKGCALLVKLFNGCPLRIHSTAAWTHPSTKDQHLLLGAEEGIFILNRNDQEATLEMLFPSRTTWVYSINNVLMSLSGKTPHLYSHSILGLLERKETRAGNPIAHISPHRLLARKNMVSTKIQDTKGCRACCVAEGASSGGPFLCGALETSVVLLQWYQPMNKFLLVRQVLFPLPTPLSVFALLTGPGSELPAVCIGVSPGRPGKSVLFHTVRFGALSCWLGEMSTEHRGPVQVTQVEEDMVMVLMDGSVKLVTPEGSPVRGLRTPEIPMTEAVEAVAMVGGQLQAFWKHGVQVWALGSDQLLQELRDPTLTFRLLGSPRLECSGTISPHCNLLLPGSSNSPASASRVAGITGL

LOK/STK10 = LOK/STK10 (Homo sapiens, UniProt O94804)
Chain of LOK/STK10 (O94804 whole entry): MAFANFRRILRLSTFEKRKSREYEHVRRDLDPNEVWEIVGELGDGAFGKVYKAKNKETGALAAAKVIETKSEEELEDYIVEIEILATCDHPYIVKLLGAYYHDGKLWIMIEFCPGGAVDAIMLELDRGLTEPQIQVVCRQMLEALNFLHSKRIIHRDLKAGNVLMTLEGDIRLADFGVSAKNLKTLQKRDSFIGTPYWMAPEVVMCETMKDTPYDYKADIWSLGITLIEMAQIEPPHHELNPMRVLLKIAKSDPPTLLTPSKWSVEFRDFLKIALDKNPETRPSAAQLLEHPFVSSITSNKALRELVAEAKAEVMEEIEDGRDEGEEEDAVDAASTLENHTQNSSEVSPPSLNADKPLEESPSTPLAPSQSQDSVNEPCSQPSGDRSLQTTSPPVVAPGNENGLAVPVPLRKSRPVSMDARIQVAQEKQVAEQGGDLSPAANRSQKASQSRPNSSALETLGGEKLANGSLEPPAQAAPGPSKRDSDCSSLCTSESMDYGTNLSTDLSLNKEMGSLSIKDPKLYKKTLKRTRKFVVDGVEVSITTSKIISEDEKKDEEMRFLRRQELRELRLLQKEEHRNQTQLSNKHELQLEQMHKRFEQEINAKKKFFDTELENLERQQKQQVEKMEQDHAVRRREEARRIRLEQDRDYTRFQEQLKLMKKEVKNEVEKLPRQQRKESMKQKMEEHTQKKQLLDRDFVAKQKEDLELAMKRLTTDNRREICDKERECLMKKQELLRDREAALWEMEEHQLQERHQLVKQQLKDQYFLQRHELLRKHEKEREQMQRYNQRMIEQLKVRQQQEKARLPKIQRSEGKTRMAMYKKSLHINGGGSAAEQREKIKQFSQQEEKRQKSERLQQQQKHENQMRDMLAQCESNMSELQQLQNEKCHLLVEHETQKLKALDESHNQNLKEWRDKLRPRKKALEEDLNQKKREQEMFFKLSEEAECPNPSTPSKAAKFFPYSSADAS

VRK2 = VRK2 (Homo sapiens, UniProt Q86Y07)
Chain of VRK2 (Q86Y07 whole entry): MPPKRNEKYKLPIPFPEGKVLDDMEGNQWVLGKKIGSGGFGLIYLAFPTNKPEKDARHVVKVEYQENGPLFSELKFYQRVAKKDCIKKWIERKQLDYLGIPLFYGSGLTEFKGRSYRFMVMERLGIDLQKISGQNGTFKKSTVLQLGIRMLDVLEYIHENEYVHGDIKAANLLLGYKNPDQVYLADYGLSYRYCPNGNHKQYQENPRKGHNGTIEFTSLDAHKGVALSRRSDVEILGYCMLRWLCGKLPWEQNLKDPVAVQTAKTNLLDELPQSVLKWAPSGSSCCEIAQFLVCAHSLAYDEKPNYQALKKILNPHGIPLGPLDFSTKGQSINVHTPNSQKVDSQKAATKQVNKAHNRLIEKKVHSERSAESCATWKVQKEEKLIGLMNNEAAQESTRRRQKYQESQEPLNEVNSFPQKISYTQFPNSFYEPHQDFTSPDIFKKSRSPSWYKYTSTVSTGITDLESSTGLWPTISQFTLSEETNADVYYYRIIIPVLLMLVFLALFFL

TTBK2 = TTBK2 (Homo sapiens, UniProt Q6IQ55)
Chain of TTBK2 (Q6IQ55 whole entry): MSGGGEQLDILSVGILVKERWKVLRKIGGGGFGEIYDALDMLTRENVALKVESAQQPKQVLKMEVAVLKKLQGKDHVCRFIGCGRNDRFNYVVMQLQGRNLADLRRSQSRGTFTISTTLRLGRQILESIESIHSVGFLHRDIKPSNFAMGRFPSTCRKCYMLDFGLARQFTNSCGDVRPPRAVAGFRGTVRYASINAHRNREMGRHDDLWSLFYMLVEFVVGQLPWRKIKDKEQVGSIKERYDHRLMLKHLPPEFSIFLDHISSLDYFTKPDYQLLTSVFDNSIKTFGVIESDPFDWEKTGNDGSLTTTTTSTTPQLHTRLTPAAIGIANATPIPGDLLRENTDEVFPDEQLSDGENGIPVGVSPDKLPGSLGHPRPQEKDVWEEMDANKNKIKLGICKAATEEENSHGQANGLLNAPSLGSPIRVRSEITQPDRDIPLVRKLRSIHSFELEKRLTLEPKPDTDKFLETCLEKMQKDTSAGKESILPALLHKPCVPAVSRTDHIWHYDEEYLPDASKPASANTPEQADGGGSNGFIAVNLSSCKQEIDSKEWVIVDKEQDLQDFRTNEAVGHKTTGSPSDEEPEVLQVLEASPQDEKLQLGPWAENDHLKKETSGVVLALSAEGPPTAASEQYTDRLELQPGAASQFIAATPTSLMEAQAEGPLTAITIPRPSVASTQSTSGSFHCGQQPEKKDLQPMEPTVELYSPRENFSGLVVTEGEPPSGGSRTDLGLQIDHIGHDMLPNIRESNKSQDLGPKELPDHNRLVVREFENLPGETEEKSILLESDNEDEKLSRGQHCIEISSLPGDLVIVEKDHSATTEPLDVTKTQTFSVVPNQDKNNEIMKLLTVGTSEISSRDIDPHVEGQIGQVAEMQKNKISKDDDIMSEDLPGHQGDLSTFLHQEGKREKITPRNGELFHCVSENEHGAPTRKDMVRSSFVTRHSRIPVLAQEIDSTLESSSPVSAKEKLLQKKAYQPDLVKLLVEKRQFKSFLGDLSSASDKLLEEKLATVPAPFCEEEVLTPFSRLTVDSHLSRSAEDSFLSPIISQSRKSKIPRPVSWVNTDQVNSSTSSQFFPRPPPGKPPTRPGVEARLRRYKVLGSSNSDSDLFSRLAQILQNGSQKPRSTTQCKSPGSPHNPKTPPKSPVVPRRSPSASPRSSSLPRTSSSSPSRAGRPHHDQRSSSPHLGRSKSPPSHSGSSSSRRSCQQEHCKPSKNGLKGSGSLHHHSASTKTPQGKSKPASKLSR

TTBK1 = TTBK1 (Homo sapiens, UniProt Q5TCY1); settings: control compound, Km ATP; read-out: IC50 (M) Control Cmpd
ERK1 = molecular target: T5, ERK1 (Homo sapiens, UniProt P27361)
T5 construct: gene MAPK3

PKMYT1 = molecular target: T6, PKMYT1 (Homo sapiens, UniProt Q99640)
T6 sequence (Q99640 1-499): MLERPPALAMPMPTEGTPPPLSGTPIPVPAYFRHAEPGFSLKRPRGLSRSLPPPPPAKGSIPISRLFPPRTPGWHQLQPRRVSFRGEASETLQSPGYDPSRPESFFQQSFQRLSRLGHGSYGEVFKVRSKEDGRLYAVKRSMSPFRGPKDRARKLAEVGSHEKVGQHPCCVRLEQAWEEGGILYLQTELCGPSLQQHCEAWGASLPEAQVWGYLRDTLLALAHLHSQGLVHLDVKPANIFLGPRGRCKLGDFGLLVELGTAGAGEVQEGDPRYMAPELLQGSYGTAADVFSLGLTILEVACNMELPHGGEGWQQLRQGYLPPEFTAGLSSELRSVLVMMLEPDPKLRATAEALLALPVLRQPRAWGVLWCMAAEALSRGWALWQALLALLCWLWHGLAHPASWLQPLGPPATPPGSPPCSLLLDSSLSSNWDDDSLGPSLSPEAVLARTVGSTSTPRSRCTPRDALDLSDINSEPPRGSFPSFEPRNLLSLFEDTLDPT

Chain of TGFBR2 (P37173 whole entry): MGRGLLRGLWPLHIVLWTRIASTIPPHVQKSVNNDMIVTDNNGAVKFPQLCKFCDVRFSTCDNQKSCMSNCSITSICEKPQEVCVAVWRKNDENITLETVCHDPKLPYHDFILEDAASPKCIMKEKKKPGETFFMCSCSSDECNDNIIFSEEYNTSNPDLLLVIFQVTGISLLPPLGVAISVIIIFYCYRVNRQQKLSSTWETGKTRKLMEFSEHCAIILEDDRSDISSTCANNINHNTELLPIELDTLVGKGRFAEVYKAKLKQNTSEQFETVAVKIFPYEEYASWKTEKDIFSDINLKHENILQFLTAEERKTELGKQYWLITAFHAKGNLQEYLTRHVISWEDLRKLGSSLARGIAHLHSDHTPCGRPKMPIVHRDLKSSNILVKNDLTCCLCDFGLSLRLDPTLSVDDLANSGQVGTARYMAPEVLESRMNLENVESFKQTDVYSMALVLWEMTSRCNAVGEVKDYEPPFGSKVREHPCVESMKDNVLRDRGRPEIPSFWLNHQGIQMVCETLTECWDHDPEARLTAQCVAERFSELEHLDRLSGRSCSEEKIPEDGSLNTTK

IC50 (TGFBR2): 54.8 nM
SMILES: c1ccc2c(-c3cnn4cc(-c5ccc(N6CCNCC6)cc5)cnc34)ccnc2c1 [LDN193189]

IC50 (ARAF): 15.1 nM | IC50 (CK2a): 231 nM | IC50 (DYRK4): 1610 nM | IC50 (ZAK/MLTK): 3110 nM
SMILES: O=C1Nc2ccc(I)cc2/C1=C/c1cc(Br)c(O)c(Br)c1 [GW5074]

IC50 (COT1/MAP3K8): 10200 nM | IC50 (HIPK1): 3060 nM | IC50 (HPK1/MAP4K1): 51 nM | IC50 (LOK/STK10): 141 nM | IC50 (VRK2): 5730 nM
SMILES: Cn1cc(C2=C(c3cn(CCCSC(=N)N)c4ccccc34)C(=O)NC2=O)c2ccccc21 [RO-31-8220]

IC50 (TTBK2): 5470 nM | IC50 (TTBK1): 1.31e-05 M
SMILES: Oc1ccc(-c2nc(-c3ccncc3)c(-c3ccc(F)cc3)[nH]2)cc1 [SB202190]

IC50 (ERK1): 9.34 nM
SMILES: O=C(Nc1ccc2[nH]nc(-c3ccncc3)c2c1)[C@@H]1CCN(CC(=O)N2CCN(c3ccc(-c4ncccn4)cc3)CC2)C1 [SCH772984]

SMILES: CN[C@@H]1C[C@H]2O[C@@](C)([C@@H]1OC)n1c3ccccc3c3c4c(c5c6ccccc6n2c5c31)C(=O)NC4 [STAUROSPORINE]
IC50 (PKMYT1): 10.4 nM
